According to publication doi:10.1101/2021.04.08.439011v1 (biorxiv, 2021):
Where two headings read alike, the source gives them in different places.

Assays:
PRKCD = PRKCD (Homo sapiens, UniProt Q05655); conditions: 1 µM; binder
TESK1 = TESK1 (Homo sapiens, UniProt Q15569); conditions: 1 µM; binder
TLK1 = TLK1 (Homo sapiens, UniProt Q9UKI8); conditions: 1 µM; binder
RPS6KA6 = RPS6KA6 (Homo sapiens, UniProt Q9UK32); conditions: binder
FLT3(ITD) = FLT3(ITD) (Homo sapiens, UniProt P36888); conditions: 1 µM; binder
KIT(V559D,V654A) = KIT(V559D,V654A) (Homo sapiens, UniProt P10721, V559D/V654A); conditions: 1 µM; binder
ASK1 = ASK1 (Homo sapiens, UniProt Q99683); conditions: 1 µM; binder
ERN1 = ERN1 (Homo sapiens, UniProt O75460); conditions: 1 µM; binder
DLK = DLK (Homo sapiens, UniProt Q12852); conditions: 1 µM; binder
CSNK2A2 = CSNK2A2 (Homo sapiens, UniProt P19784); conditions: 1 µM; binder
PDGFRA = PDGFRA (Homo sapiens, UniProt P16234); conditions: 1 µM; binder
RIPK4 = RIPK4 (Homo sapiens, UniProt P57078); conditions: 1 µM; binder
YANK3 = YANK3 (Homo sapiens, UniProt Q86UX6); conditions: 1 µM; binder
YSK4 = YSK4 (Homo sapiens, UniProt Q56UN5); conditions: 1 µM; binder
MLK2 = MLK2 (Homo sapiens, UniProt Q02779); conditions: 1 µM; binder
CSNK1G1 = CSNK1G1 (Homo sapiens, UniProt Q9HCP0); conditions: 1 µM; binder
FGFR3 = FGFR3 (Homo sapiens, UniProt P22607); conditions: 1 µM; binder
GSK3B = GSK3B (Homo sapiens, UniProt P49841); conditions: 1 µM; binder
BRSK1 = BRSK1 (Homo sapiens, UniProt Q8TDC3); conditions: 1 µM; binder
CLK4 = CLK4 (Homo sapiens, UniProt Q9HAZ1); conditions: 1 µM; binder
PFTK1 = PFTK1 (Homo sapiens, UniProt O94921); conditions: 1 µM; binder
NEK6 = NEK6 (Homo sapiens, UniProt Q9HC98); conditions: 1 µM; binder
HIPK4 = HIPK4 (Homo sapiens, UniProt Q8NE63); conditions: 1 µM; binder
YES = YES (Homo sapiens, UniProt P07947); conditions: 1 µM; binder
ROCK1 = ROCK1 (Homo sapiens, UniProt Q13464); conditions: 1 µM; binder
WNK2 = WNK2 (Homo sapiens, UniProt Q9Y3S1); conditions: 1 µM; binder
TRPM6 = TRPM6 (Homo sapiens, UniProt Q9BX84); conditions: 1 µM; binder
FRK = FRK (Homo sapiens, UniProt P42685); conditions: 1 µM; binder
CSNK2A1 = CSNK2A1 (Homo sapiens, UniProt P68400); conditions: 1 µM; binder
SGK2 = SGK2 (Homo sapiens, UniProt Q9HBY8); conditions: 1 µM; binder

Sequence of RPS6KA6 (Q9UK32 whole entry): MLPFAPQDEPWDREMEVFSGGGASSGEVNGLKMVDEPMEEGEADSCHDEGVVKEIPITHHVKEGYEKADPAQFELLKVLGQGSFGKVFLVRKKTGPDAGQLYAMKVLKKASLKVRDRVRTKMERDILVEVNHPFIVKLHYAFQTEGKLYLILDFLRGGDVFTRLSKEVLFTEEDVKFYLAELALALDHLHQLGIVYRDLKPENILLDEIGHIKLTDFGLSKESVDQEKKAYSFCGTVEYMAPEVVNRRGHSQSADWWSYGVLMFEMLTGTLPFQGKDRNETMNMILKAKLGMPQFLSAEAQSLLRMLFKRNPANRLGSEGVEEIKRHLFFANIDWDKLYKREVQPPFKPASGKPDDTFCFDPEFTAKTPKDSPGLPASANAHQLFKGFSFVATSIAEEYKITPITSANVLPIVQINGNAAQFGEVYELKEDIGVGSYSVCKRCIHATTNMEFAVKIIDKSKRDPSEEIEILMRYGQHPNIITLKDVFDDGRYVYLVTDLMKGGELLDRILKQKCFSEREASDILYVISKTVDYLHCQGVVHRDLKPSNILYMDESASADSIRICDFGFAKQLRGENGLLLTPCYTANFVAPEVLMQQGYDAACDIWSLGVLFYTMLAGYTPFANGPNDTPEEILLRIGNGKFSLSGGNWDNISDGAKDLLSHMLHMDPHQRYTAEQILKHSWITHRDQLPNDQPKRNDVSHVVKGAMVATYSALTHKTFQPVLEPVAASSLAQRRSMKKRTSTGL
Sequence of GSK3B (P49841 whole entry): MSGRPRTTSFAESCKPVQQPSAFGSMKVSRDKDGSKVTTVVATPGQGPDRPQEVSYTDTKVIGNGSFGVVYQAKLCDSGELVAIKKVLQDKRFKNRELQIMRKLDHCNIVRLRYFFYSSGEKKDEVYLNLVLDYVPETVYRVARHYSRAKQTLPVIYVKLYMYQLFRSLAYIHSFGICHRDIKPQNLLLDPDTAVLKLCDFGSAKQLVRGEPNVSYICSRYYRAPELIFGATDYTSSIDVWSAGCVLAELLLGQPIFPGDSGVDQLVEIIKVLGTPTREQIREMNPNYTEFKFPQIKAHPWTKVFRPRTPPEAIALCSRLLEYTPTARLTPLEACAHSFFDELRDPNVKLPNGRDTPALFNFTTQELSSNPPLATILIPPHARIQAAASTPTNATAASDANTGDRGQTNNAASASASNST
Sequence of NEK6 (Q9HC98 whole entry): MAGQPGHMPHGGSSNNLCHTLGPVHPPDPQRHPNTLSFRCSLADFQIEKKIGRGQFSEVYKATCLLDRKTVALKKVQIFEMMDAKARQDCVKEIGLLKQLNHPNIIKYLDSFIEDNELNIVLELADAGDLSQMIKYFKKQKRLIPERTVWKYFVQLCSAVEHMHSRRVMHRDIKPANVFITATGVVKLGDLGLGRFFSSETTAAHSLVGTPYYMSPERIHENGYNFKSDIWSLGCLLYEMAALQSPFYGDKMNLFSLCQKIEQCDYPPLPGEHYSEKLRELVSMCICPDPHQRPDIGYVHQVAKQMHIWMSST
Sequence of PRKCD (Q05655 whole entry): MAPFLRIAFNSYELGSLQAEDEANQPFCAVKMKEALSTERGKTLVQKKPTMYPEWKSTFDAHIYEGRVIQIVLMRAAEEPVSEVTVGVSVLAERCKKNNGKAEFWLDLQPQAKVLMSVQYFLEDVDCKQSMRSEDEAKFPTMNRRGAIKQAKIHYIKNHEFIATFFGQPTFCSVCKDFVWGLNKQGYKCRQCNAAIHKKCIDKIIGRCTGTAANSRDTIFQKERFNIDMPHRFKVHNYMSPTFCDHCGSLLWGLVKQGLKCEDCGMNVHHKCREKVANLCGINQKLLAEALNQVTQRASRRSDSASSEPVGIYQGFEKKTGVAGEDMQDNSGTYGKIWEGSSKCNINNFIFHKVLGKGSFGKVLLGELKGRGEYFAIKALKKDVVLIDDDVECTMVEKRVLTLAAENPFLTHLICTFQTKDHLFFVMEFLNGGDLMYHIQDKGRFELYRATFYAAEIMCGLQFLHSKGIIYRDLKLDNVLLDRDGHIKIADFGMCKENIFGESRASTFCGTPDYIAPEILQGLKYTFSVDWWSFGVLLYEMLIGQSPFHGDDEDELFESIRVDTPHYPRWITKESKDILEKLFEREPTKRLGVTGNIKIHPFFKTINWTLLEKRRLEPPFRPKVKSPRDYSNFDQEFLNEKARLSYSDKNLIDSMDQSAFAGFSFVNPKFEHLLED
Sequence of YES (P07947 whole entry): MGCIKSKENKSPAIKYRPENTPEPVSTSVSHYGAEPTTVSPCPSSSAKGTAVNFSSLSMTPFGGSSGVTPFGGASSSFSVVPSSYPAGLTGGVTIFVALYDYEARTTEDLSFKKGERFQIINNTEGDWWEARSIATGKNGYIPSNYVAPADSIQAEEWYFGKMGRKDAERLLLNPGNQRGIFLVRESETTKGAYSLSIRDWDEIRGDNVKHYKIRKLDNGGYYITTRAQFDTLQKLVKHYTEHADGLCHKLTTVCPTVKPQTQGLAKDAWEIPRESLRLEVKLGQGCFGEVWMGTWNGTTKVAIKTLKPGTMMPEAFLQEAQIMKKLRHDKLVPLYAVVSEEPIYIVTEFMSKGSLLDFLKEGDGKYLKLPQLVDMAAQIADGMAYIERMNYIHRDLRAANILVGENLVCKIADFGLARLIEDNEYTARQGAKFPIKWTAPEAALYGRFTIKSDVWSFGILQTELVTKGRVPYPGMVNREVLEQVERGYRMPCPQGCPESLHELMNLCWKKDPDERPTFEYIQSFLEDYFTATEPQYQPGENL
Sequence of HIPK4 (Q8NE63 whole entry): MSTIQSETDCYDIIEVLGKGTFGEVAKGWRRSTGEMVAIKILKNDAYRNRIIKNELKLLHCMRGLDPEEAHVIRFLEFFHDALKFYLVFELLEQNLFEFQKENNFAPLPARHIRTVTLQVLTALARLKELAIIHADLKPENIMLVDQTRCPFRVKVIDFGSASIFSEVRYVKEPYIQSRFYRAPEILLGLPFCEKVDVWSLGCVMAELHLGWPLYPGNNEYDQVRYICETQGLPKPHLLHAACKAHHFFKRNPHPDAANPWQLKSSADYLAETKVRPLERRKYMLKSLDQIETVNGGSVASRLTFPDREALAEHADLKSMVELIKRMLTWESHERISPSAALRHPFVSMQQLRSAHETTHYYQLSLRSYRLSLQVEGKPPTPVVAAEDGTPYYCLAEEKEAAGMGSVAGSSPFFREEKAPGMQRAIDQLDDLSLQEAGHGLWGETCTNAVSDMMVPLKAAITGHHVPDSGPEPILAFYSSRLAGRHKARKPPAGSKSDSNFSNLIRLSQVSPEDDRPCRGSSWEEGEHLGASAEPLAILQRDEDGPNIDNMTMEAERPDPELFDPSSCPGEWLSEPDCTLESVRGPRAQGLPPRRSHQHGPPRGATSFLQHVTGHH
Sequence of DLK (Q12852 whole entry): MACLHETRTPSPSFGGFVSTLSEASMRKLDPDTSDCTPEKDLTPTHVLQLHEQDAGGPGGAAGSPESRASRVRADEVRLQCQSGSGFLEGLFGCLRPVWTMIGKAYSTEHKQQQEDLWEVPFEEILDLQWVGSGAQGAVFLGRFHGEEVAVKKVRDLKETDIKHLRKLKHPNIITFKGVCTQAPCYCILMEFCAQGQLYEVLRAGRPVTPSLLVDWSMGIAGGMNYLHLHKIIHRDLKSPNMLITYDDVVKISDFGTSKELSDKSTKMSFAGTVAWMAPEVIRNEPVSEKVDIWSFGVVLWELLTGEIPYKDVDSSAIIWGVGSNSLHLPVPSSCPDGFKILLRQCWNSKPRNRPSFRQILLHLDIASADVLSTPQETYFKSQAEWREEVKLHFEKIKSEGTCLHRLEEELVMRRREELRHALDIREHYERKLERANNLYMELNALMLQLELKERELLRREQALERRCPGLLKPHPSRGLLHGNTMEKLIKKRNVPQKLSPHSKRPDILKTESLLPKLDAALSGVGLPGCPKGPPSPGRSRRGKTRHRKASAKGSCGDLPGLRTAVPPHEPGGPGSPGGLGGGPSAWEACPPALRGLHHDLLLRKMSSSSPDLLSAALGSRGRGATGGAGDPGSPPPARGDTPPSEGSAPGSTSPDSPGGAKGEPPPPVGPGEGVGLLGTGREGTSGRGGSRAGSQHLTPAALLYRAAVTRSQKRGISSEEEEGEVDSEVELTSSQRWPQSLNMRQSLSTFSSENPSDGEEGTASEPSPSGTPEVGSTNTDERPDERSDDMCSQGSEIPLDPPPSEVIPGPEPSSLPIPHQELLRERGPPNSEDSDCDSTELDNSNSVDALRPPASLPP
Sequence of RIPK4 (P57078 whole entry): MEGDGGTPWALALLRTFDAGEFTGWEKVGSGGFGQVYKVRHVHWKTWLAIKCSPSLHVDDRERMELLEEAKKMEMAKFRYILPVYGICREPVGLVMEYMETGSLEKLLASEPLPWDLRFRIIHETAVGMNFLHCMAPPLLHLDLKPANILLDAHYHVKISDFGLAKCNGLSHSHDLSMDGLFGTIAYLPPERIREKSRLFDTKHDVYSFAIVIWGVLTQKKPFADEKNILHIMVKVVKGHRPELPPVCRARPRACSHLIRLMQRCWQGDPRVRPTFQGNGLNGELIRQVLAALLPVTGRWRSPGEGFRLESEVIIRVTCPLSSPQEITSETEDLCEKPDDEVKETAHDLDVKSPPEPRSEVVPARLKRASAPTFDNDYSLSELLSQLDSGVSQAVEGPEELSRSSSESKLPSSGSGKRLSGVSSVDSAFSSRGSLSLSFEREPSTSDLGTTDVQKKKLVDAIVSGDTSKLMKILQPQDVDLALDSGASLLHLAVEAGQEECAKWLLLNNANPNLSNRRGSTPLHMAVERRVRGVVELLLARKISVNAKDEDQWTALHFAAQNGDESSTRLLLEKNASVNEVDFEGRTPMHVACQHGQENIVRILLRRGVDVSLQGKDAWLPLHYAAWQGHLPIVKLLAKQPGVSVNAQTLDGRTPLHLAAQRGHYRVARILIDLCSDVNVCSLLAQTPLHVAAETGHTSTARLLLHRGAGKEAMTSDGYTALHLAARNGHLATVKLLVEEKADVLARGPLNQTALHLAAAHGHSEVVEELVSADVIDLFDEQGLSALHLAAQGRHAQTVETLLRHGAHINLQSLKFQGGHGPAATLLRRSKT

In the case of `CNc1ncc2cc(-c3ccc(-c4cccc(C)n4)cc3Cl)c(=O)n(C[C@H]3OC[C@H](N)CO3)c2n1` [compound 6, G-5555], the “Percent Control” value (PRKCD) is reported as 100%, the “Percent Control” value (TESK1) is reported as 99% and the “Percent Control” value (TLK1) is reported as 100%. The “Percent Control” value (RPS6KA6; Kin.Dom.1 N-terminal) was 95%, the “Percent Control” value (RPS6KA6; Kin.Dom.2 C-terminal, 1 µM) was 92% and the “Percent Control” value (FLT3(ITD)) was 100%. The “Percent Control” value (KIT(V559D,V654A)) was 100%, the “Percent Control” value (ASK1) was 71% and the “Percent Control” value (ERN1) was 100%. For the same molecule, the “Percent Control” value (DLK) was 100%, the “Percent Control” value (CSNK2A2) was 95% and the “Percent Control” value (PDGFRA) was 96%. The “Percent Control” value (RIPK4) was 100%, the “Percent Control” value (YANK3) was 79% and the “Percent Control” value (YSK4) was 19%. The “Percent Control” value (MLK2) was 88%, the “Percent Control” value (CSNK1G1) was 100% and the “Percent Control” value (FGFR3) was 100%. The “Percent Control” value (GSK3B) was 100%, the “Percent Control” value (BRSK1) was 100% and the “Percent Control” value (CLK4) was 100%. For the same molecule, the “Percent Control” value (PFTK1) was 100%, the “Percent Control” value (NEK6) was 100% and the “Percent Control” value (HIPK4) was 100%. For the same molecule, the “Percent Control” value (YES) was 100%, the “Percent Control” value (ROCK1) was 100% and the “Percent Control” value (WNK2) was 88%. For the same molecule, the “Percent Control” value (TRPM6) was 100%, the “Percent Control” value (FRK) was 71% and the “Percent Control” value (CSNK2A1) was 98%. For the same molecule, the “Percent Control” value (SGK2) was 100%.
